Data from patent US10344060B2 (priority 2013, dated 2019).
Like-named read-outs stand apart in the source and are kept apart here.

How the values were obtained:
Experiment in all cases: cell-based
[1] = biological target: rNav1.7 (Rattus norvegicus, UniProt O08562); details: for IC50: PatchXpress, tonic block, rat Nav1.7, read-out: PX rNav1.7 Tonic IC50; for rNav1.7/hNav1.7: ratio of PX tonic IC50, rat Nav1.7 over human Nav1.7
[2] = biological target: mNav1.7 (Mus musculus, UniProt Q62205); details: for IC50: PatchXpress, tonic block, mouse Nav1.7, read-out: PX mNav1.7 Tonic IC50; for mNav1.7/hNav1.7: ratio of PX tonic IC50, mouse Nav1.7 over human Nav1.7
[3] = biological target: mouse Nav1.4 (Mus musculus, UniProt Q9ER60); details: for IC50: PatchXpress, tonic block, mouse Nav1.4, read-out: PX mNav1.4 Tonic IC50; for mNav1.4/mNav1.7: ratio of PX tonic IC50, mouse Nav1.4 over mouse Nav1.7
[4] = biological target: T1, hNav1.7 (Homo sapiens, UniProt Q15858); format: cell-based
[5] = biological target: T1, hNav1.7; format: cell-based; details: read-out: Nav1.7 whole cell patch clamp [WCPC] IC50

Chain of mouse Nav1.4 (Q9ER60 whole entry): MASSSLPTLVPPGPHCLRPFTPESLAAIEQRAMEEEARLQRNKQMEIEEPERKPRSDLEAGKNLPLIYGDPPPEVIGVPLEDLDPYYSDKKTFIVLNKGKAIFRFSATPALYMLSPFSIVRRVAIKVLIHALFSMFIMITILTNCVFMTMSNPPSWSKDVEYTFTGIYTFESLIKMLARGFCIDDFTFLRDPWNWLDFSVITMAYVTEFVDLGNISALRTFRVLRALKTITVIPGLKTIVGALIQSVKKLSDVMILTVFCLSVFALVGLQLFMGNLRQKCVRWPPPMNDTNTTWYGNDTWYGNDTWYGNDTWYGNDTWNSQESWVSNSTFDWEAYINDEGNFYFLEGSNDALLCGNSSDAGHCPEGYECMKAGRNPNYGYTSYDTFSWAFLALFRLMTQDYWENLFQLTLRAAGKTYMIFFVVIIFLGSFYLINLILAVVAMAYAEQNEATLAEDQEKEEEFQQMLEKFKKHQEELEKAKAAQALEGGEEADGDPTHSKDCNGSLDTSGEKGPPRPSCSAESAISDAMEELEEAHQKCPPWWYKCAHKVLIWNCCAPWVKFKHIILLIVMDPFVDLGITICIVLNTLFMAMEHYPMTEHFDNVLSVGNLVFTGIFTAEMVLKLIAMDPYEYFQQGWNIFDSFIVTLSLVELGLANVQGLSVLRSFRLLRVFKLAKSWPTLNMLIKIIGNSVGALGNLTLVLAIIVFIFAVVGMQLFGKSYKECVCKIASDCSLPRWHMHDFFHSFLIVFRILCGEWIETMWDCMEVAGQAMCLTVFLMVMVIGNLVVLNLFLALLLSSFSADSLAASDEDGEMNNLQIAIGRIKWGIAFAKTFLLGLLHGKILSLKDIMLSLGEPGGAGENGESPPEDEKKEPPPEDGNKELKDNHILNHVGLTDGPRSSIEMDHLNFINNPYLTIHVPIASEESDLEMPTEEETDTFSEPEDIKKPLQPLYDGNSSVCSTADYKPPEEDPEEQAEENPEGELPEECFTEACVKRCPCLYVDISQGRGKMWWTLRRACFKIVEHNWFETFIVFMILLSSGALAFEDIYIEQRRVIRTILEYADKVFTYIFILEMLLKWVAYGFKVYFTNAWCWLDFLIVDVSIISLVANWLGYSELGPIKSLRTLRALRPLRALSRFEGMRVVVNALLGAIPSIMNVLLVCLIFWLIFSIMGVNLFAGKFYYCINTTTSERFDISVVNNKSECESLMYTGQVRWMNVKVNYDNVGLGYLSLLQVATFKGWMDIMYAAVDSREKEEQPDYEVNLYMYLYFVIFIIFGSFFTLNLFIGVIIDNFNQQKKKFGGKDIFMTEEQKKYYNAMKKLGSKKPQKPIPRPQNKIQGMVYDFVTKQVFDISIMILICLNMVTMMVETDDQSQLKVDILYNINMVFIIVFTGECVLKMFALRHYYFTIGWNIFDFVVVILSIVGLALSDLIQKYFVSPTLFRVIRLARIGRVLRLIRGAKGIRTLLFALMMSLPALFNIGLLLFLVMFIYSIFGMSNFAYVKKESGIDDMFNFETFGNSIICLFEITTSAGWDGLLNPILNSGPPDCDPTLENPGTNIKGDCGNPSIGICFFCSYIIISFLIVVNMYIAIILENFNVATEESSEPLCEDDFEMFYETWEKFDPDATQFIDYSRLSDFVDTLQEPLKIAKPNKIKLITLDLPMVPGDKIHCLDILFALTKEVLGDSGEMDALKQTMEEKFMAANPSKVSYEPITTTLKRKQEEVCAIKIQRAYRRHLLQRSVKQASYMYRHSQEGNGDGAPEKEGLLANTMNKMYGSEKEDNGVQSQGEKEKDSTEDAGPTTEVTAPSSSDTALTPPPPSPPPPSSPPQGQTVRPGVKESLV
Chain of rNav1.7 (O08562 whole entry): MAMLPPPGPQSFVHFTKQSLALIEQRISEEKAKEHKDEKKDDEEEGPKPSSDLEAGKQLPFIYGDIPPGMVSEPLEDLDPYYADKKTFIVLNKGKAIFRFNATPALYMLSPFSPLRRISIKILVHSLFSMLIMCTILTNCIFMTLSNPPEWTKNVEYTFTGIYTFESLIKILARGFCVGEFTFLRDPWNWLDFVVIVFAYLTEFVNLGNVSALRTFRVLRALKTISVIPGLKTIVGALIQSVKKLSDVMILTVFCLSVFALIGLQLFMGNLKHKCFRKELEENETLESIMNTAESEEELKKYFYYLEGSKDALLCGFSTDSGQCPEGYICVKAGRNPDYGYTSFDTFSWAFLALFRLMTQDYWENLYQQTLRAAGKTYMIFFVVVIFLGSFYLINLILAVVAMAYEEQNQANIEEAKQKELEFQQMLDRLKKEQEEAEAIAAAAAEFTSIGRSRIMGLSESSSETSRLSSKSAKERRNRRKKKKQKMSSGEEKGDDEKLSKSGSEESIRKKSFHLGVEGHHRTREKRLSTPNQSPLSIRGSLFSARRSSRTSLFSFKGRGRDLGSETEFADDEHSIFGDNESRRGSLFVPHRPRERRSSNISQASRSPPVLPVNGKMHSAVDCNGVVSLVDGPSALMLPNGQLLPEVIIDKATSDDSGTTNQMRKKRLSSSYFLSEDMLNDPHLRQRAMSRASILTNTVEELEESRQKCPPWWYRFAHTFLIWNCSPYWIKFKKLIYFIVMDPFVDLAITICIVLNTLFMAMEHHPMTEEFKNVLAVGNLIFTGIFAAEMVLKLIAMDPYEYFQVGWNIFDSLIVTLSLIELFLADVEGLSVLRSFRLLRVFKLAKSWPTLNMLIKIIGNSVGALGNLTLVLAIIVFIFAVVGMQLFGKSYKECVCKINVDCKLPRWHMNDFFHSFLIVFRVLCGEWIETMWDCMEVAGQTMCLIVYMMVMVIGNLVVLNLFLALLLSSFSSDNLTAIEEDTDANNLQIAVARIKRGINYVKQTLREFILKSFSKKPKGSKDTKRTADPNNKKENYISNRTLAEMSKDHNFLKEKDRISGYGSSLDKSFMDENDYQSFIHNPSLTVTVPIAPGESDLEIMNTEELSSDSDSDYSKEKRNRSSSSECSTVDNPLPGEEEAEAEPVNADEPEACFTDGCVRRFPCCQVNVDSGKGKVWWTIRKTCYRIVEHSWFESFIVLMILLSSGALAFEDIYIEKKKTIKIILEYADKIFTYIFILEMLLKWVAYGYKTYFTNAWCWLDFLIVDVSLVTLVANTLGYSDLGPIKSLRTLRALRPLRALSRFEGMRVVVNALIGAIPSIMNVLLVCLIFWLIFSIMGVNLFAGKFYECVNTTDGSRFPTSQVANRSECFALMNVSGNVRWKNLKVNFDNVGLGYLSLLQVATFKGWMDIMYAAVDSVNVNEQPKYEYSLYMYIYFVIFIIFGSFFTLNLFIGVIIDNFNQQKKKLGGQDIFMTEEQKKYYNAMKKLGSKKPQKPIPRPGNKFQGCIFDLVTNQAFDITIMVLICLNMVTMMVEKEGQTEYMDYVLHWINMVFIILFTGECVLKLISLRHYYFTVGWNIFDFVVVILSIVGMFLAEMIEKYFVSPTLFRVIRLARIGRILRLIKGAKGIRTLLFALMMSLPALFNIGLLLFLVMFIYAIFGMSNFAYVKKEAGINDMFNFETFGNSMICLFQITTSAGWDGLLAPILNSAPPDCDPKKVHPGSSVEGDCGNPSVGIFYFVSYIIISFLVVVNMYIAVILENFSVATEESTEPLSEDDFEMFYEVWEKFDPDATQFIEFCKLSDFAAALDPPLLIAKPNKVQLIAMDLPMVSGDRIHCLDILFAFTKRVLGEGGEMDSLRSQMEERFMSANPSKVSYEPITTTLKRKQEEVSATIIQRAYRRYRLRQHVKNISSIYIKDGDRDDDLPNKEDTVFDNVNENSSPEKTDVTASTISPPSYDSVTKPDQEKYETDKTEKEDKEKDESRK

`C#CC[C@H](N)C(=O)N[C@@H](CCC(=O)O)C(=O)N[C@H]1CSSC[C@@H]2NC(=O)[C@@H]3CSSC[C@@H](C(=O)N[C@@H](CCCNC(=N)N)C(=O)N[C@@H](CCCCN)C(=O)N[C@@H](CCC(=O)O)C(=O)N[C@H](C(N)=O)[C@@H](C)CC)NC(=O)[C@H](Cc4c[nH]c5ccccc45)NC(=O)[C@H](CC(C)C)NC(=O)[C@H](CCCCN)NC(=O)[C@H](CSSC[C@H](NC(=O)[C@H]([C@@H](C)O)NC(=O)[C@H](Cc4c[nH]c5ccccc45)NC(=O)[C@H](CCCC)NC(=O)[C@H](Cc4c[nH]c5ccccc45)NC(=O)[C@H](CCCCN)NC(=O)[C@H](CCC(N)=O)NC1=O)C(=O)N[C@@H](CC(=O)O)C(=O)N[C@@H](CO)C(=O)N[C@@H](CCCCN)C(=O)N[C@@H](CCCNC(=N)N)C(=O)N[C@@H](C)C(=O)N3)NC(=O)[C@H](CCCNC(=N)N)NC(=O)[C@H](CC(C)C)NC(=O)CNC(=O)[C@H](CCC(=O)O)NC2=O` [Pra-[Glu1, 28; Nle6]JzTx-V(1-29)] showed an IC50 [1] of 1.38 nM, a rNav1.7/hNav1.7 [1] of 1.22 and an IC50 [2] of 9.48 nM. It also gave a mNav1.7/hNav1.7 [2] of 8.41, an IC50 [3] of 259 nM and a mNav1.4/mNav1.7 [3] of 27.

`C#CC[C@H](N)C(=O)N[C@@H](Cc1ccc(O)cc1)C(=O)N[C@H]1CSSC[C@@H]2NC(=O)[C@@H]3CSSC[C@@H](C(=O)N[C@@H](CCCNC(=N)N)C(=O)N[C@@H](CCCCN)C(=O)N[C@@H](CCC(=O)O)C(=O)N[C@H](C(N)=O)[C@@H](C)CC)NC(=O)[C@H](Cc4c[nH]c5ccccc45)NC(=O)[C@H](CC(C)C)NC(=O)[C@H](CCCCN)NC(=O)[C@H](CSSC[C@H](NC(=O)[C@H]([C@@H](C)O)NC(=O)[C@H](Cc4c[nH]c5ccccc45)NC(=O)[C@H](CCCC)NC(=O)[C@H](Cc4c[nH]c5ccccc45)NC(=O)[C@H](CCCCN)NC(=O)[C@H](CCC(N)=O)NC1=O)C(=O)N[C@@H](CC(=O)O)C(=O)N[C@@H](CO)C(=O)N[C@@H](CCCCN)C(=O)N[C@@H](CCCNC(=N)N)C(=O)N[C@@H](C)C(=O)N3)NC(=O)[C@H](CCCNC(=N)N)NC(=O)[C@H](CC(C)C)NC(=O)CNC(=O)[C@H](CCC(=O)O)NC2=O` [Pra-[Nle6, Glu28]JzTx-V(1-29)] gave an IC50 [1] of 0.641 nM, a rNav1.7/hNav1.7 [1] of 1.17 and an IC50 [2] of 9.86 nM. It also gave a mNav1.7/hNav1.7 [2] of 17.99, an IC50 [3] of 119 nM and a mNav1.4/mNav1.7 [3] of 12.

`C#CC[C@H](N)C(=O)N[C@@H](Cc1ccc(O)cc1)C(=O)N[C@H]1CSSC[C@@H]2NC(=O)[C@@H]3CSSC[C@@H](C(=O)N[C@@H](CCCNC(=N)N)C(=O)N[C@@H](CCCCN)C(=O)N[C@@H](CCC(=O)O)C(=O)N[C@H](C(N)=O)[C@@H](C)CC)NC(=O)[C@H](Cc4c[nH]c5ccccc45)NC(=O)[C@H](CC(C)C)NC(=O)[C@H](CCCCN)NC(=O)[C@H](CSSC[C@H](NC(=O)[C@H]([C@@H](C)O)NC(=O)[C@H](Cc4c[nH]c5ccccc45)NC(=O)[C@H](CCCC)NC(=O)[C@H](Cc4c[nH]c5ccccc45)NC(=O)[C@H](CCCCN)NC(=O)[C@H](CCC(N)=O)NC1=O)C(=O)N[C@@H](CC(=O)O)C(=O)N[C@@H](CCC(=O)O)C(=O)N[C@@H](CCCCN)C(=O)N[C@@H](CCCNC(=N)N)C(=O)N[C@@H](C)C(=O)N3)NC(=O)[C@H](CCCNC(=N)N)NC(=O)[C@H](CC(C)C)NC(=O)CNC(=O)[C@H](CCC(=O)O)NC2=O` [Pra-[Nle6; Glu11, 28]JzTx-V(1-29)] showed a rNav1.7/hNav1.7 [1] of 0.95, a mNav1.7/hNav1.7 [2] of 10.57 and a mNav1.4/mNav1.7 [3] of 34.

Work on `C#CC[C@H](N)C(=O)N[C@@H](Cc1ccc(O)cc1)C(=O)N[C@H]1CSSC[C@@H]2NC(=O)[C@@H]3CSSC[C@@H](C(=O)N[C@@H](CCCNC(=N)N)C(=O)N[C@@H](CCCCN)C(=O)N[C@@H](CCC(=O)O)C(=O)N[C@H](C(N)=O)[C@@H](C)CC)NC(=O)[C@H](Cc4c[nH]c5ccccc45)NC(=O)[C@H](CC(C)C)NC(=O)[C@H](CCCCN)NC(=O)[C@H](CSSC[C@H](NC(=O)[C@H]([C@@H](C)O)NC(=O)[C@H](Cc4c[nH]c5ccccc45)NC(=O)[C@H](CCCC)NC(=O)[C@H](Cc4c[nH]c5ccccc45)NC(=O)[C@H](CCCCN)NC(=O)[C@H](CCC(N)=O)NC1=O)C(=O)N[C@@H](CC(=O)O)C(=O)N[C@@H](CO)C(=O)N[C@@H](CCC(=O)O)C(=O)N[C@@H](CCCNC(=N)N)C(=O)N[C@@H](C)C(=O)N3)NC(=O)[C@H](CCCNC(=N)N)NC(=O)[C@H](CC(C)C)NC(=O)CNC(=O)[C@H](CCCCN)NC2=O` [Pra-[Nle6; Glu12, 28; Lys17]JzTx-V(1-29)] yielded an IC50 [1] of 2.01 nM, a rNav1.7/hNav1.7 [1] of 0.23 and an IC50 [2] of 4.4 nM. The mNav1.7/hNav1.7 [2] was 0.50, the IC50 [3] was 63 nM and the mNav1.4/mNav1.7 [3] was 14.

Molecule `C#CC[C@H](N)C(=O)N[C@@H](Cc1ccc(O)cc1)C(=O)N[C@H]1CSSC[C@@H]2NC(=O)[C@@H]3CSSC[C@@H](C(=O)N[C@@H](CCCNC(=N)N)C(=O)N[C@@H](CCCCN)C(=O)N[C@@H](CCC(=O)O)C(=O)N[C@H](C(N)=O)[C@@H](C)CC)NC(=O)[C@H](Cc4c[nH]c5ccccc45)NC(=O)[C@H](CC(C)C)NC(=O)[C@H](CCCCN)NC(=O)[C@H](CSSC[C@H](NC(=O)[C@H]([C@@H](C)O)NC(=O)[C@H](Cc4c[nH]c5ccccc45)NC(=O)[C@H](CCCC)NC(=O)[C@H](Cc4c[nH]c5ccccc45)NC(=O)[C@H](CCCCN)NC(=O)[C@H](CCC(N)=O)NC1=O)C(=O)N[C@@H](CC(=O)O)C(=O)N[C@@H](CO)C(=O)N[C@@H](CCC(=O)O)C(=O)N[C@@H](CCCNC(=N)N)C(=O)N[C@@H](C)C(=O)N3)NC(=O)[C@H](CCCNC(=N)N)NC(=O)[C@H](CC(C)C)NC(=O)CNC(=O)[C@H](CCC(=O)O)NC2=O` [Pra-[Nle6; Glu12, 28]JzTx-V(1-29)] has an IC50 [1] of 2.66 nM, a rNav1.7/hNav1.7 [1] of 1.54 and an IC50 [2] of 16.2 nM. The mNav1.7/hNav1.7 [2] was 9.37, the IC50 [3] was 548 nM and the mNav1.4/mNav1.7 [3] was 34.

Work on `C#CC[C@H](N)C(=O)N[C@@H](Cc1ccc(O)cc1)C(=O)N[C@H]1CSSC[C@@H]2NC(=O)[C@@H]3CSSC[C@@H](C(=O)N[C@@H](CCCNC(=N)N)C(=O)N[C@@H](CCCCN)C(=O)N[C@H](C(=O)N[C@H](C(N)=O)[C@@H](C)CC)[C@@H](C)CC)NC(=O)[C@H](Cc4c[nH]c5ccccc45)NC(=O)[C@H](CC(C)C)NC(=O)[C@H](CCCCN)NC(=O)[C@H](CSSC[C@H](NC(=O)[C@H]([C@@H](C)O)NC(=O)[C@H](Cc4c[nH]c5ccccc45)NC(=O)[C@H](CCCC)NC(=O)[C@H](Cc4c[nH]c5ccccc45)NC(=O)[C@H](CCCCN)NC(=O)[C@H](CCC(N)=O)NC1=O)C(=O)N[C@@H](CC(=O)O)C(=O)N[C@@H](CO)C(=O)N[C@@H](CCC(=O)O)C(=O)N[C@@H](CCCNC(=N)N)C(=O)N[C@@H](C)C(=O)N3)NC(=O)[C@H](CCCNC(=N)N)NC(=O)[C@H](CC(C)C)NC(=O)CNC(=O)[C@H](CCCCN)NC2=O` [Pra-[Nle6; Glu12; Lys17]JzTx-V(1-29)] yielded an IC50 [1] of 0.653 nM, a rNav1.7/hNav1.7 [1] of 0.35 and an IC50 [2] of 1.27 nM. For the same molecule, the mNav1.7/hNav1.7 [2] was 0.68, the IC50 [3] was 2.77 nM and the mNav1.4/mNav1.7 [3] was 2.2.

In the case of `C#CC[C@H](N)C(=O)N[C@@H](Cc1ccc(O)cc1)C(=O)N[C@H]1CSSC[C@@H]2NC(=O)[C@@H]3CSSC[C@@H](C(=O)N[C@@H](CCCNC(=N)N)C(=O)N[C@@H](CCCCN)C(=O)N[C@H](C(=O)N[C@H](C(N)=O)[C@@H](C)CC)[C@@H](C)CC)NC(=O)[C@H](Cc4c[nH]c5ccccc45)NC(=O)[C@H](CC(C)C)NC(=O)[C@H](CCCCN)NC(=O)[C@H](CSSC[C@H](NC(=O)[C@H]([C@@H](C)O)NC(=O)[C@H](Cc4c[nH]c5ccccc45)NC(=O)[C@H](CCCC)NC(=O)[C@H](Cc4c[nH]c5ccccc45)NC(=O)[C@H](CCCCN)NC(=O)[C@H](CCC(N)=O)NC1=O)C(=O)N[C@@H](CC(=O)O)C(=O)N[C@@H](CO)C(=O)N[C@@H](CCC(=O)O)C(=O)N[C@@H](CCCNC(=N)N)C(=O)N[C@@H](C)C(=O)N3)NC(=O)[C@H](CCCNC(=N)N)NC(=O)[C@H](CC(C)C)NC(=O)CNC(=O)[C@H](CCC(=O)O)NC2=O` [Pra-[Nle6; Glu12]JzTx-V(1-29)], the IC50 [1] is reported as 0.58 nM, the rNav1.7/hNav1.7 [1] is reported as 0.49 and the IC50 [2] is reported as 0.61 nM. The mNav1.7/hNav1.7 [2] was 0.51, the IC50 [3] was 6.36 nM and the mNav1.4/mNav1.7 [3] was 10.

`C#CC[C@H](N)C(=O)N[C@@H](Cc1ccc(O)cc1)C(=O)N[C@H]1CSSC[C@@H]2NC(=O)[C@@H]3CSSC[C@@H](C(=O)N[C@@H](CCCNC(=N)N)C(=O)N[C@@H](CCCCN)C(=O)N[C@H](C(=O)N[C@H](C(N)=O)[C@@H](C)CC)[C@@H](C)CC)NC(=O)[C@H](Cc4c[nH]c5ccccc45)NC(=O)[C@H](CC(C)C)NC(=O)[C@H](CCCCN)NC(=O)[C@H](CSSC[C@H](NC(=O)[C@H]([C@@H](C)O)NC(=O)[C@H](Cc4c[nH]c5ccccc45)NC(=O)[C@H](CCCC)NC(=O)[C@H](Cc4c[nH]c5ccccc45)NC(=O)[C@H](CCCCN)NC(=O)[C@H](CCC(N)=O)NC1=O)C(=O)N[C@@H](CC(=O)O)C(=O)N[C@@H](CO)C(=O)N[C@@H](CCCCN)C(=O)N[C@@H](CCCNC(=N)N)C(=O)N[C@@H](C)C(=O)N3)NC(=O)[C@H](CCCNC(=N)N)NC(=O)[C@H](CC(C)C)NC(=O)CNC(=O)[C@H](CCC(=O)O)NC2=O` [SEQ ID NO: 425, Pra-[Nle6]JzTx-V(1-29)] was tested, and the IC50 [1] was 0.522 nM, the rNav1.7/hNav1.7 [1] was 0.44 and the IC50 [2] was 0.511 nM. It also gave a mNav1.7/hNav1.7 [2] of 0.43, an IC50 [3] of 0.18 nM and a mNav1.4/mNav1.7 [3] of 0.35.

“[Phe6,Atz(2 kDa EtO-PEG*-[Phe6,Atz13*]GpTx-1(1-34)1)13]GpTx-1(1-34) [Homodimeric Conjugate No. 3]” was tested, and the Wash out [4] was “No”, the IC50 ([4]; read-out: Nav1.7 PX IC50) was 13 nM and the IC50 [5] was 0.58 nM.
